Assay results taken from patent publication US20210179578A1, “OX1 ANTAGONISTS” (Heptares Therapeutics Limited, priority 2017, published 2021).

Experiments:
human OX2 receptor = biological target: T1, human OX2 receptor (Homo sapiens, UniProt O43614); test: [3H]-radioligand binding assay, OX2; set-up: made in house; host or cells: SF21 insect cells (baculovirus; P0 virus made in SF9); conditions: [3H]-radioligand binding, human OX2 membranes; read-out: pKi average OX2 (converted)
T1 sequence (O43614 1-444): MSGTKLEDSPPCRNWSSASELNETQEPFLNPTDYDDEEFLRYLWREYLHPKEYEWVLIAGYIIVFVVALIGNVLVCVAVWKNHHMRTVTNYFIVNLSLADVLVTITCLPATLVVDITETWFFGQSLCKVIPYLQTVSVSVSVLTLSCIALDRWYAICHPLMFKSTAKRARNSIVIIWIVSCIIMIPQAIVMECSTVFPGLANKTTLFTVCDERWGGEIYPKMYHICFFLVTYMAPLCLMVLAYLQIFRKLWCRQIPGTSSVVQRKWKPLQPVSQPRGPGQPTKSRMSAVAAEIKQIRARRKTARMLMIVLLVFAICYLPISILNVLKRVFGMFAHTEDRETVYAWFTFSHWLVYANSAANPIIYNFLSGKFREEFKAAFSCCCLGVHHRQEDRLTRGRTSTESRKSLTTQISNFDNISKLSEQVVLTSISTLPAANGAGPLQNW
Description: (§1) Cloning, Baculovirus generation, large-scale infection of SF21 cells and membrane preparation. Human OX1 or OX2 receptor were cloned into Invitrogen's (ThermoFisher Scientific, UK) Bac-to-Bac Baculovirus Expression System. P0 baculovirus was generated by transfecting SF9 cells with bacmid DNA using Cellfectin® II transfection reagent (ThermoFisher Scientific, UK, Catalog number 10362-100). Following P0 generation P1 virus was then generated ready for large scale infection and membrane preparation. SF21 cells were grown in expression medium ESF921 (Expression Systems, USA, catalog number 96-001-01) supplemented with 10% heat-inactivated FBS and 1% Pen/Strep and were infected at a cell density of 2.5×10^6 cells/mL and a multiplicity of infection of 1.0 for both human OX1R and OX2R. Incubation was carried out at over 48 h in a shaking incubator set at 27° C. The cell culture was then centrifuged at 2,500 rcf for 10 min at 4° C. The pellets were resuspended in cold PBS supplemented with Roche's Complete EDTA-free protease inhibitor cocktail tablets (Roche Applied Sciences, catalog number 05056489001), 1 mM PMSF and 1 mM EDTA. The resuspended cell paste was then centrifuged at 3,273 rcf for 12 min at 4° C. The supernatant was discarded and the pellet frozen at −80° C. The cell pellet from a 4 L culture was resuspended in buffer containing 50 mM HEPES pH 7.5, 150 mM NaCl, 8 Roche EDTA-Free protease inhibitor cocktail tablets and 1 mM PMSF. The suspension was left stirring at rt for 1 h and then homogenised for 90 s at 9,500 rpm using a VDI 25 (VWR, USA) homogeniser. The cells were then lysed using a Microfluidiser processor M-110L Pneumatic (Microfluidics, USA) at 60 PSI and membranes collected by ultracentrifugation at 204.7 k×g for 1 h. The supernatant was discarded and the pellet was resuspended and homogenised in 90 s at 9,500 rpm in 50 mL (25 mL for each 2 L culture) of buffer containing 50 mM Hepes pH 7.5, 150 mM NaCl, 3 Roche EDTA-free protease inhibitor cocktail tablets and 1 mM PMSF. The resulting membranes were then stored at −80° C.
(§2) [^3H]-radioligand binding assay. After thawing, membrane homogenates were resuspended in the binding buffer (8.5 mM HEPES, pH 7.4, 1.3 mM CaCl2, 1.2 mM MgSO4, 118 mM NaCl, 4.7 mM KCl, 4 mM NaHCO3, 1.2 mM KH2PO4, 11 mM glucose) to a final assay concentration of 6.4 μg (OX1) or 1.4 μg (OX2) protein per well. Saturation isotherms were determined by the addition of various concentrations (0-30 nM) of [^3H]-4-(2,6-difluoro-4-methoxybenzyl)-2-(5,6-dimethoxypyridin-3-yl)-2H-1,2,4-benzothiadiazin-3(4H)-one 1,1-dioxide (Christopher et al, MedChemComm., 2015, 6, 947-955) in a total reaction volume of 250 μL for 90 min at rt. At the end of the incubation, membranes were filtered onto a 96-well GF/B filter pre-incubated with 0.5% polyethylenimine, with a Tomtec cell harvester and washed 5 times with 0.5 mL distilled water. Non-specific binding (NSB) was measured in the presence of 3.33 μM [4-(5-chloro-1,3-benzoxazol-2-yl)-7-methyl-1,4-diazepan-1-yl][5-methyl-2-(2H-1,2,3-triazol-2-yl)phenyl]methanone (Wertz et al, Angew. Chem. Int. Ed., 2011, 50, 11511-11515). Radioactivity on the filter was counted (1 min) on a Microbeta radiometric plate counter (Perkin Elmer) after addition of 50 μL of scintillation fluid (LabLogic: Part #SG-BXX-14). […] IC50 values were derived from the inhibition curve and the equilibrium dissociation constant (Ki) values were calculated using the Cheng-Prusoff equation.

human OX1 receptor = biological target: T2, human OX1 receptor (Homo sapiens, UniProt O43613); test: [3H]-radioligand binding assay, OX1; set-up: made in house; host or cells: SF21 insect cells (baculovirus; P0 virus made in SF9); conditions: [3H]-radioligand binding, human OX1 membranes; read-out: pKi average OX1 (converted)
T2 sequence (O43613 1-425): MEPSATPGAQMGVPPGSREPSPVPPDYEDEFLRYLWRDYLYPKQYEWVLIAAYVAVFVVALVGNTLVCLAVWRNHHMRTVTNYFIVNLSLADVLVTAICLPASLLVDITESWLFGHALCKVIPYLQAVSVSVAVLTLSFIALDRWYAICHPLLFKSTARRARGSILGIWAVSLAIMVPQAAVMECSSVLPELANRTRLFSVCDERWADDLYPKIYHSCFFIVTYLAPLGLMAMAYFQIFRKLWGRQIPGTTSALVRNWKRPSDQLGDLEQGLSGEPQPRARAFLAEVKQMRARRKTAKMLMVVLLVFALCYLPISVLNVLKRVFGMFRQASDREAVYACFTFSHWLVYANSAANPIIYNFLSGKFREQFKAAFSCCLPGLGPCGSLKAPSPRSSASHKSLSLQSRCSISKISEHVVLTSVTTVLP
Description: as §1, §2

SMILES	Ki (human OX2 receptor) [nM]	Ki (human OX1 receptor) [nM]
Cc1ccc(N2CCc3c(F)cccc3N(Cc3c(F)cc(Br)cc3F)C2=O)cc1C(C)(F)F [Example 1, 1-(4-bromo-2,6-difluorobenzyl)-3-[3-(1,1-difluoroethyl)-4-methylphenyl]-6-fluoro-1,3,4,5-tetrahydro-2H-1,3-benzodiazepin-2-one]	200	2
COc1ncc(N2CCc3c(F)cccc3N(Cc3c(F)cc(Br)cc3F)C2=O)cc1C(C)(F)F [Example 3, 1-(4-bromo-2,6-difluorobenzyl)-3-[5-(1,1-difluoroethyl)-6-methoxypyridin-3-yl]-6-fluoro-1,3,4,5-tetrahydro-2H-1,3-benzodiazepin-2-one]	> 79.4	1.26
COc1ccc(CN2C(=O)N(c3cnc(OC)c(C(C)(F)F)c3)CCc3c(F)cccc32)c(F)c1 [Example 4, 3-[5-(1,1-difluoroethyl)-6-methoxypyridin-3-yl]-6-fluoro-1-(2-fluoro-4-methoxybenzyl)-1,3,4,5-tetrahydro-2H-1,3-benzodiazepin-2-one]	63.1	0.794
[2H]C([2H])([2H])Oc1cc(F)c(CN2C(=O)N(c3cnc(OC)c(C(C)(F)F)c3)CCc3c(F)cccc32)c(F)c1 [Example 6, 3-[5-(1,1-difluoroethyl)-6-methoxypyridin-3-yl]-1-{2,6-difluoro-4-[(^2H3)methyloxy]benzyl}-6-fluoro-1,3,4,5-tetrahydro-2H-1,3-benzodiazepin-2-one]	100	0.398
COc1ncc(N2CCc3c(F)cccc3N(Cc3ccc(Br)cc3F)C2=O)cc1C(C)(F)F [Example 10, 1-(4-bromo-2-fluorobenzyl)-3-[5-(1,1-difluoroethyl)-6-methoxypyridin-3-yl]-6-fluoro-1,3,4,5-tetrahydro-2H-1,3-benzodiazepin-2-one]	> 251	1.26
COc1ncc(N2CCc3c(F)cccc3N(Cc3c(F)cc(Br)cc3F)C2=O)cc1S(C)(=O)=O [Example 14, 1-(4-bromo-2,6-difluorobenzyl)-6-fluoro-3-[6-methoxy-5-(methylsulfonyl)pyridin-3-yl]-1,3,4,5-tetrahydro-2H-1,3-benzodiazepin-2-one]	> 251	3.16
COc1cc(F)c(CN2C(=O)N(c3cnc(OC)c(S(C)(=O)=O)c3)CCc3c(F)cccc32)c(F)c1F [Example 15, 6-fluoro-3-[6-methoxy-5-(methylsulfonyl)pyridin-3-yl]-1-(2,3,6-trifluoro-4-methoxybenzyl)-1,3,4,5-tetrahydro-2H-1,3-benzodiazepin-2-one]	> 251	1.26
COc1nc(OC)c(C(C)(F)F)cc1N1CCc2c(F)cccc2N(Cc2c(F)cc(Br)cc2F)C1=O [Example 23, 1-(4-bromo-2,6-difluorobenzyl)-3-[5-(1,1-difluoroethyl)-2,6-dimethoxypyridin-3-yl]-6-fluoro-1,3,4,5-tetrahydro-2H-1,3-benzodiazepin-2-one]	> 126	1.26
COCc1cc(F)c(CN2C(=O)N(c3cc(C(C)(F)F)c(OC)nc3OC)CCc3c(F)cccc32)c(F)c1 [Example 24, 3-[5-(1,1-difluoroethyl)-2,6-dimethoxypyridin-3-yl]-1-[2,6-difluoro-4-(methoxymethyl)benzyl]-6-fluoro-1,3,4,5-tetrahydro-2H-1,3-benzodiazepin-2-one]	> 158	1
CSc1cc(N2CCc3c(F)cccc3N(Cc3c(F)cc(Br)cc3F)C2=O)ccc1C [Example 26, 1-(4-bromo-2,6-difluorobenzyl)-6-fluoro-3-[4-methyl-3-(methylsulfanyl)phenyl]-1,3,4,5-tetrahydro-2H-1,3-benzodiazepin-2-one]	100	1.26

Results, then the compound that gave them:

Ki (human OX2 receptor) [nM]	Ki (human OX1 receptor) [nM]	SMILES
200	0.631	Cc1ncc(C2CCc3c(F)cccc3N(Cc3c(F)cc(Br)cc3F)C2=O)cc1C(C)(F)F (single isomer, unassigned) [Example 36, 1-(4-bromo-2,6-difluorobenzyl)-3-[5-(1,1-difluoroethyl)-6-methylpyridin-3-yl]-6-fluoro-1,3,4,5-tetrahydro-2H-1-benzazepin-2-one]
> 316	10	Cc1ncc(C2CCc3c(F)cccc3N(Cc3c(F)cc(Br)cc3F)C2=O)cc1S(C)(=O)=O (single isomer, unassigned) [Example 38, 1-(4-bromo-2,6-difluorobenzyl)-6-fluoro-3-[6-methyl-5-(methylsulfonyl)pyridin-3-yl]-1,3,4,5-tetrahydro-2H-1-benzazepin-2-one]
> 501	1.26	Cc1ncc(C2CCc3c(F)cccc3N(Cc3c(F)cc(Br)cc3F)C2=O)cc1S(C)(=O)=O (single isomer, unassigned) [Example 39, 1-(4-bromo-2,6-difluorobenzyl)-6-fluoro-3-[6-methyl-5-(methylsulfonyl)pyridin-3-yl]-1,3,4,5-tetrahydro-2H-1-benzazepin-2-one]
> 126	1.58	COc1cc(F)c(CN2C(=O)N(c3cc(S(C)(=O)=O)c(OC)nc3OC)CCc3c(F)cccc32)c(F)c1 [Example 25, 1-(2,6-difluoro-4-methoxybenzyl)-3-[2,6-dimethoxy-5-(methylsulfonyl)pyridin-3-yl]-6-fluoro-1,3,4,5-tetrahydro-2H-1,3-benzodiazepin-2-one]
> 316	1.58	Cc1ccc(N2CCc3c(F)cccc3N(Cc3c(F)cc(Br)cc3F)C2=O)cc1S(C)(=O)=O [Example 27, 1-(4-bromo-2,6-difluorobenzyl)-6-fluoro-3-[4-methyl-3-(methylsulfonyl)phenyl]-1,3,4,5-tetrahydro-2H-1,3-benzodiazepin-2-one]
> 316	2	CCCc1cc(F)c(CN2C(=O)N(c3ccc(C)c(S(C)(=O)=O)c3)CCc3c(F)cccc32)c(F)c1 [Example 28, 1-(2,6-difluoro-4-propylbenzyl)-6-fluoro-3-[4-methyl-3-(methylsulfonyl)phenyl]-1,3,4,5-tetrahydro-2H-1,3-benzodiazepin-2-one]
